According to article PMC6681697, “One-Step ^18F-Labeling and Preclinical Evaluation of Prostate-Specific Membrane Antigen Trifluoroborate Probes for Cancer Imaging” (Journal of Nuclear Medicine, 2019):

Assays:
[1] = biological target: T1, PSMA (Homo sapiens, UniProt Q04609); experiment: In vitro competition binding assay on LNCaP cells with ^18F-DCFPyL as radioligand
T1 construct: because it expresses PSMA endogenously and is commonly used to evaluate PSMA-targeting radiotracers; endogenous in cells; host or cells: LNCaP cells
T1 sequence (Q04609 whole entry): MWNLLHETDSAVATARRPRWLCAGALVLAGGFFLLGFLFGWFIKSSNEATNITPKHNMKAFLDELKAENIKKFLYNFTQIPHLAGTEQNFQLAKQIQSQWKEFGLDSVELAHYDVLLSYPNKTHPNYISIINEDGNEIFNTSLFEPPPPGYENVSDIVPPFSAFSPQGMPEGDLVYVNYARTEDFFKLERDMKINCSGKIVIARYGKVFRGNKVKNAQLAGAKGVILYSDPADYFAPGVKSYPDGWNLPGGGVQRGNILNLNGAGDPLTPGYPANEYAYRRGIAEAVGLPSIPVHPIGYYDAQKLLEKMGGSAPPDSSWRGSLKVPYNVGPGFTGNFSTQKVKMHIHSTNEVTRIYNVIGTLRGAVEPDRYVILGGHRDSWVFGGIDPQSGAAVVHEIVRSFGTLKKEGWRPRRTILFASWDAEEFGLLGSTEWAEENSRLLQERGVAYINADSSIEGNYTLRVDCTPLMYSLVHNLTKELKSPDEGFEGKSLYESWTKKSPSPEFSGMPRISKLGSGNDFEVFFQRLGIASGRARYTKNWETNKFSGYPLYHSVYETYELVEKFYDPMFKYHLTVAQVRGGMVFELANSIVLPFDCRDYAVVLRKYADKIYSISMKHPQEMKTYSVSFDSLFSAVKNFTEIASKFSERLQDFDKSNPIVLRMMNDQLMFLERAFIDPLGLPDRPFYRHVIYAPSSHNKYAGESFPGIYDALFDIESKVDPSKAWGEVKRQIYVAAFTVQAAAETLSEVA
Protocol: LNCaP cells were plated onto a 24-well poly-D-lysine coated plate for 48 h (400,000/well). […] Nonspecific binding was determined in the presence of 10 μM unlabeled DCFPyL. The assay mixtures were incubated for 1 h at 37°C with gentle agitation followed by 2 washes with cold HEPES buffered saline. A trypsin solution (0.25%, 400 μL) was then added to each well to harvest the cells. Radioactivity was measured by γ-counting, and Ki values were calculated using the “1 site—fit Ki” built-in model in Prism 7 (GraphPad).

[2] = Distribution coefficient (LogD7.4), shake flask method; assay type: physicochemical; conditions: n-octanol / phosphate buffer 0.1 M pH 7.4; n = 3
Protocol: LogD7.4 values were measured using the shake flask method. Briefly, an aliquot of ^18F-labeled tracer was added to a vial containing 2.5 mL of n-octanol and 2.5 mL of phosphate buffer (0.1 M, pH 7.4). The mixture was vortexed for 2 min and then centrifuged at 3,000g for 10 min. A sample of the n-octanol (0.1 mL) and buffer (0.1 mL) layers was counted using a γ-counter. Values of LogD7.4 were calculated using the following equation: LogD7.4 = log10 [(counts in n-octanol phase)/(counts in buffer phase)].

[3] = system: LNCaP xenografts; experiment: Ex vivo biodistribution and blocking studies in mice bearing LNCaP xenografts; conditions: for tumor uptake: LNCaP tumor
Protocol: Imaging and biodistribution experiments were performed using NODSCID IL2RγKO male mice. All experiments were conducted according to the guidelines established by the Canadian Council on Animal Care and approved by the Animal Ethics Committee of the University of British Columbia. Mice were anesthetized by inhalation with 2% isoflurane in oxygen and implanted subcutaneously with 1 × 10^7 LNCaP cells behind the left shoulder. The mice were imaged or used in biodistribution studies once the tumor reached 5–8 mm in diameter (5–6 wk).
For biodistribution and blocking studies, the mice were injected with 1–3 MBq of radiotracer. At 60 min, the mice were anesthetized with 2% isoflurane inhalation and euthanized by CO2 inhalation. Blood was withdrawn by cardiac puncture, and the organs and tissues of interest were collected, weighed, and counted using an automatic γ-counter (PerkinElmer). Uptake values were expressed as the percentage of the injected dose per gram of tissue (%ID/g).
A standard 1-way ANOVA was performed to determine whether statistically significant differences in tumor uptake occurred between radiotracers. Each radiotracer was compared with ^18F-DCFPyL using the Dunnett test (a many-to-one t test comparison). This analysis was also performed for kidney and blood activity and for tumor-to-blood and tumor-to-muscle ratios. Reported P values were adjusted for multiple comparisons. The analysis was performed using Prism 8 (GraphPad). […]
Statistical analyses were performed using GradPad prism 7. Multiple t tests were performed to compare biodistribution in unblocked and blocked mice, multiple comparisons were corrected using the Holm-Sidak method. The difference was considered statistically significant when p value was < 0.05.
Supplemental Table 1 – Complete biodistribution study for compounds [18F]1–3 […]
Tissue 1h 1h blocked 1h 1h blocked 1h 1h blocked
(%ID/g) n = 8 n = 4 n = 6 n = 4 n = 8 n = 5 […]
(1 picture or pasted object on this page, not shown here)

[4] = 1 h after injection, 1-way ANOVA, Dunnett test
[5] = 1 h blocked (coinjection of DCFPyL 0.5 mg)

O=C(O)CC[C@H](NC(=O)N[C@@H](CCCCNC(=O)c1ccc(Cn2cc(C[n+]3ccc([B-](F)(F)F)cc3)nn2)nc1)C(=O)O)C(=O)O [^18F-4]
Ki [1]: 27.6 ± 3.8 nM
logD at 2 min [2]: -3.34 ± 0.02
T/B (tumor-to-blood ratio) ([3]; 1 h after injection, unblocked): 8.70 ± 1.74
T/K (tumor-to-kidney ratio) ([3]; 1 h after injection, unblocked): 0.04 ± 0.02
T/M (tumor-to-muscle ratio) ([3]; 1 h after injection, unblocked): 23.40 ± 5.00
adrenal uptake ([3]; 1 h after injection, unblocked): 6.66 ± 2.33 %ID/g
blood uptake ([3]; 1 h after injection, unblocked): 0.74 ± 0.15 %ID/g
bone uptake ([3]; 1 h after injection, unblocked): 0.76 ± 0.57 %ID/g
brain uptake ([3]; 1 h after injection, unblocked): 0.05 ± 0.01 %ID/g
fat uptake ([3]; 1 h after injection, unblocked): 1.05 ± 0.49 %ID/g
heart uptake ([3]; 1 h after injection, unblocked): 0.34 ± 0.08 %ID/g
intestine uptake ([3]; 1 h after injection, unblocked): 0.48 ± 0.22 %ID/g
kidney uptake ([3]; 1 h after injection, unblocked): 164.33 ± 50.20 %ID/g
liver uptake ([3]; 1 h after injection, unblocked): 1.28 ± 0.18 %ID/g
lung uptake ([3]; 1 h after injection, unblocked): 1.67 ± 0.47 %ID/g
muscle uptake ([3]; 1 h after injection, unblocked): 0.28 ± 0.07 %ID/g
pancreas uptake ([3]; 1 h after injection, unblocked): 0.68 ± 0.50 %ID/g
spleen uptake ([3]; 1 h after injection, unblocked): 3.36 ± 1.08 %ID/g
stomach uptake ([3]; 1 h after injection, unblocked): 0.15 ± 0.03 %ID/g
testes uptake ([3]; 1 h after injection, unblocked): 0.67 ± 0.27 %ID/g
tumor uptake compared with ^18F-DCFPyL [3, 4]: lower tumor uptake than ^18F-DCFPyL
T/B (tumor-to-blood ratio) [3, 5]: 0.75 ± 0.18
T/K (tumor-to-kidney ratio) [3, 5]: 0.11 ± 0.03
T/M (tumor-to-muscle ratio) [3, 5]: 1.91 ± 0.46
adrenal uptake [3, 5]: 0.26 ± 0.15 %ID/g
blood uptake [3, 5]: 0.24 ± 0.11 %ID/g
bone uptake [3, 5]: 0.56 ± 0.20 %ID/g
brain uptake [3, 5]: 0.02 ± 0.01 %ID/g
fat uptake [3, 5]: 0.04 ± 0.03 %ID/g
heart uptake [3, 5]: 0.09 ± 0.04 %ID/g
intestine uptake [3, 5]: 0.18 ± 0.04 %ID/g
kidney uptake [3, 5]: 1.62 ± 0.73 %ID/g
liver uptake [3, 5]: 0.90 ± 0.25 %ID/g
lung uptake [3, 5]: 0.19 ± 0.09 %ID/g
muscle uptake [3, 5]: 0.11 ± 0.08 %ID/g
pancreas uptake [3, 5]: 0.08 ± 0.03 %ID/g
spleen uptake [3, 5]: 0.13 ± 0.06 %ID/g
stomach uptake [3, 5]: 0.06 ± 0.02 %ID/g
testes uptake [3, 5]: 0.08 ± 0.03 %ID/g
tumor uptake ([3]; 1 h after injection, unblocked, listed as 4): 6.3 ± 0.8 %ID/g
tumor uptake ([3]; 1 h after injection, unblocked, listed as [18F]4): 6.26 ± 0.82 %ID/g
tumor uptake [3, 5]: 0.18 ± 0.11 %ID/g

C[N+](C)(Cc1cn(Cc2ccc(C(=O)NCCCC[C@H](NC(=O)N[C@@H](CCC(=O)O)C(=O)O)C(=O)O)cn2)nn1)C[B-](F)(F)F [^18F-3]
Ki [1]: 25.9 ± 5.7 nM
logD at 2 min [2]: -4.01 ± 0.14
T/B (tumor-to-blood ratio) ([3]; 1 h after injection, unblocked): 9.68 ± 4.53
T/K (tumor-to-kidney ratio) ([3]; 1 h after injection, unblocked): 0.11 ± 0.08
T/M (tumor-to-muscle ratio) ([3]; 1 h after injection, unblocked): 29.00 ± 12.40
adrenal uptake ([3]; 1 h after injection, unblocked): 1.35 ± 0.52 %ID/g
blood uptake ([3]; 1 h after injection, unblocked): 0.50 ± 0.16 %ID/g
bone uptake ([3]; 1 h after injection, unblocked): 0.20 ± 0.06 %ID/g
brain uptake ([3]; 1 h after injection, unblocked): 0.03 ± 0.01 %ID/g
fat uptake ([3]; 1 h after injection, unblocked): 0.35 ± 0.15 %ID/g
heart uptake ([3]; 1 h after injection, unblocked): 0.19 ± 0.07 %ID/g
intestine uptake ([3]; 1 h after injection, unblocked): 0.28 ± 0.07 %ID/g
kidney uptake ([3]; 1 h after injection, unblocked): 51.80 ± 24.10 %ID/g
liver uptake ([3]; 1 h after injection, unblocked): 1.17 ± 0.28 %ID/g
lung uptake ([3]; 1 h after injection, unblocked): 0.66 ± 0.19 %ID/g
muscle uptake ([3]; 1 h after injection, unblocked): 0.17 ± 0.07 %ID/g
pancreas uptake ([3]; 1 h after injection, unblocked): 0.27 ± 0.13 %ID/g
spleen uptake ([3]; 1 h after injection, unblocked): 0.84 ± 0.52 %ID/g
stomach uptake ([3]; 1 h after injection, unblocked): 0.08 ± 0.04 %ID/g
testes uptake ([3]; 1 h after injection, unblocked): 0.30 ± 0.09 %ID/g
kidney accumulation compared with ^18F-DCFPyL [3, 4]: lower kidney accumulation
tumor uptake compared with ^18F-DCFPyL [3, 4]: lower tumor uptake than ^18F-DCFPyL
T/B (tumor-to-blood ratio) [3, 5]: 1.17 ± 0.70
T/K (tumor-to-kidney ratio) [3, 5]: 0.16 ± 0.05
T/M (tumor-to-muscle ratio) [3, 5]: 3.54 ± 1.43
adrenal uptake [3, 5]: 0.24 ± 0.07 %ID/g
blood uptake [3, 5]: 0.30 ± 0.10 %ID/g
bone uptake [3, 5]: 0.16 ± 0.06 %ID/g
brain uptake [3, 5]: 0.02 ± 0.00 %ID/g
fat uptake [3, 5]: 0.16 ± 0.10 %ID/g
heart uptake [3, 5]: 0.12 ± 0.06 %ID/g
intestine uptake [3, 5]: 0.23 ± 0.06 %ID/g
kidney uptake [3, 5]: 2.12 ± 0.73 %ID/g
liver uptake [3, 5]: 1.25 ± 0.17 %ID/g
lung uptake [3, 5]: 0.30 ± 0.11 %ID/g
muscle uptake [3, 5]: 0.09 ± 0.03 %ID/g
pancreas uptake [3, 5]: 0.08 ± 0.03 %ID/g
spleen uptake [3, 5]: 0.09 ± 0.05 %ID/g
stomach uptake [3, 5]: 0.06 ± 0.02 %ID/g
testes uptake [3, 5]: 0.10 ± 0.03 %ID/g
tumor uptake ([3]; 1 h after injection, unblocked, listed as 3): 4.4 ± 0.95 %ID/g
tumor uptake ([3]; 1 h after injection, unblocked, listed as [18F]3): 4.36 ± 0.95 %ID/g
tumor uptake [3, 5]: 0.35 ± 0.21 %ID/g
